Assay results: US11053204B2, “Pyrimidinyloxy benzene derivatives as herbicides” (FMC Corporation, priority 2015, dated 2021)

Assays:
Type in all cases: in vivo
[1] = test system: barnyardgrass (Echinochloa crus-galli); assay: Test A postemergence, visual injury rating; conditions: 0 is no effect, 100 is complete control; for Barnyardgrass plant response rating: 31 g ai/ha, 0 to 100 scale, approximately 10 days; for Barnyardgrass plant response rating (0 to 100 scale): 125 g ai/ha
In short: (§1)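 Injury scores run from 0, no effect, to 100, complete control, judged by eye against untreated plants roughly 10 days after treatment. Chemicals carried a surfactant in a non-phytotoxic solvent and went onto loam–sand soil preemergence or onto one- to two-leaf seedlings postemergence.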

[2] = test system: blackgrass (Alopecurus myosuroides); assay: Test A postemergence, visual injury rating; conditions: 0 is no effect, 100 is complete control; for Blackgrass plant response rating: 31 g ai/ha, 0 to 100 scale, approximately 10 days; for Blackgrass plant response rating (0 to 100 scale): 125 g ai/ha
In short: as §1

[3] = test system: Italian ryegrass (Lolium multiflorum); assay: Test A postemergence, visual injury rating; conditions: 0 is no effect, 100 is complete control; for Ryegrass, Italian plant response rating: 0 to 100 scale, approximately 10 days
In short: as §1

[4] = test system: corn (Zea mays); assay: Test A postemergence, visual injury rating; conditions: 0 is no effect, 100 is complete control; for Corn plant response rating: 31 g ai/ha, 0 to 100 scale, approximately 10 days; for Corn plant response rating (0 to 100 scale): 125 g ai/ha
In short: as §1

[5] = test system: ragweed (common ragweed, Ambrosia elatior); assay: Test A postemergence, visual injury rating; conditions: 0 is no effect, 100 is complete control; for Ragweed plant response rating: 0 to 100 scale, approximately 10 days
In short: as §1

[6] = test system: galium (catchweed bedstraw, Galium aparine); assay: Test A postemergence, visual injury rating; conditions: 0 is no effect, 100 is complete control; for Galium plant response rating: 31 g ai/ha, 0 to 100 scale, approximately 10 days; for Galium plant response rating (0 to 100 scale): 125 g ai/ha
In short: as §1

[7] = test system: wheat (Triticum aestivum); assay: Test A postemergence, visual injury rating; conditions: 0 is no effect, 100 is complete control; for Wheat plant response rating: 0 to 100 scale, approximately 10 days
In short: as §1

[8] = test system: giant foxtail (Setaria faberii); assay: Test A postemergence, visual injury rating; conditions: 0 is no effect, 100 is complete control; for Foxtail, Giant plant response rating: 31 g ai/ha, 0 to 100 scale, approximately 10 days; for Foxtail, Giant plant response rating (0 to 100 scale): 125 g ai/ha
In short: as §1

[9] = test system: pigweed (Amaranthus retroflexus); assay: Test A postemergence, visual injury rating; conditions: 0 is no effect, 100 is complete control; for Pigweed plant response rating: 0 to 100 scale, approximately 10 days
In short: as §1

[10] = test system: kochia (Kochia scoparia); assay: Test A postemergence, visual injury rating; conditions: 0 is no effect, 100 is complete control; for Kochia plant response rating: 0 to 100 scale, approximately 10 days
In short: as §1

[11] = test system: barnyardgrass (Echinochloa crus-galli); assay: Test B flooded paddy test, plant response rating; conditions: 250 g ai/ha; Flood; scale of 0 to 100 where 0 is no effect and 100 is complete control; 13 to 15 days
In short: (§2)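 Greenhouse pots flooded to 3 cm above soil at time of treatment received compound via the water, which stayed at that level.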

[12] = test system: sedge, umbrella (small-flower umbrella sedge, Cyperus difformis); assay: Test B flooded paddy test, plant response rating; conditions: 250 g ai/ha; Flood; scale of 0 to 100 where 0 is no effect and 100 is complete control; 13 to 15 days
In short: as §2

[13] = test system: ducksalad (Heteranthera limosa); assay: Test B flooded paddy test, plant response rating; conditions: 250 g ai/ha; Flood; scale of 0 to 100 where 0 is no effect and 100 is complete control; 13 to 15 days
In short: as §2

[14] = test system: rice (Oryza sativa); assay: Test B flooded paddy test, plant response rating; conditions: 250 g ai/ha; Flood; scale of 0 to 100 where 0 is no effect and 100 is complete control; 13 to 15 days
In short: as §2

[15] = test system: barnyardgrass (Echinochloa crus-galli); assay: Test A preemergence, visual injury rating; conditions: for Plant response rating, Barnyardgrass: 31 g ai/ha, 0 to 100 scale, 0 no effect, 100 complete control; for Barnyardgrass plant response rating: 125 g ai/ha, 0 to 100 scale (0 no effect, 100 complete control)
In short: as §1

[16] = test system: Italian ryegrass (Lolium multiflorum); assay: Test A preemergence, visual injury rating; conditions: for Plant response rating, Ryegrass, Italian: 31 g ai/ha, 0 to 100 scale, 0 no effect, 100 complete control; for Ryegrass, Italian plant response rating: 125 g ai/ha, 0 to 100 scale (0 no effect, 100 complete control)
In short: as §1

[17] = test system: ragweed (common ragweed, Ambrosia elatior); assay: Test A preemergence, visual injury rating; conditions: for Plant response rating, Ragweed: 31 g ai/ha, 0 to 100 scale, 0 no effect, 100 complete control; for Ragweed plant response rating: 125 g ai/ha, 0 to 100 scale (0 no effect, 100 complete control)
In short: as §1

[18] = test system: giant foxtail (Setaria faberii); assay: Test A preemergence, visual injury rating; conditions: for Plant response rating, Foxtail, Giant: 31 g ai/ha, 0 to 100 scale, 0 no effect, 100 complete control; for Foxtail, Giant plant response rating: 125 g ai/ha, 0 to 100 scale (0 no effect, 100 complete control)
In short: as §1

[19] = test system: pigweed (Amaranthus retroflexus); assay: Test A preemergence, visual injury rating; conditions: for Plant response rating, Pigweed: 31 g ai/ha, 0 to 100 scale, 0 no effect, 100 complete control; for Pigweed plant response rating: 125 g ai/ha, 0 to 100 scale (0 no effect, 100 complete control)
In short: as §1

[20] = test system: kochia (Kochia scoparia); assay: Test A preemergence, visual injury rating; conditions: for Plant response rating, Kochia: 31 g ai/ha, 0 to 100 scale, 0 no effect, 100 complete control; for Kochia plant response rating: 125 g ai/ha, 0 to 100 scale (0 no effect, 100 complete control)
In short: as §1

| Compound | Barnyardgrass plant response rating [1] | Barnyardgrass plant response rating (0 to 100 scale) [1] | Blackgrass plant response rating [2] | Blackgrass plant response rating (0 to 100 scale) [2] | Ryegrass, Italian plant response rating ([3]; 31 g ai/ha) | Corn plant response rating [4] | Corn plant response rating (0 to 100 scale) [4] | Ragweed plant response rating ([5]; 31 g ai/ha) | Galium plant response rating [6] | Galium plant response rating (0 to 100 scale) [6] | Wheat plant response rating ([7]; 31 g ai/ha) | Foxtail, Giant plant response rating [8] | Foxtail, Giant plant response rating (0 to 100 scale) [8] | Pigweed plant response rating ([9]; 31 g ai/ha) | Kochia plant response rating ([10]; 31 g ai/ha) | Plant response rating, Barnyardgrass [11] | Plant response rating, Sedge, Umbrella [12] | Plant response rating, Ducksalad [13] | Plant response rating, Rice [14] | Plant response rating, Barnyardgrass [15] | other results |
| --- | --- | --- | --- | --- | --- | --- | --- | --- | --- | --- | --- | --- | --- | --- | --- | --- | --- | --- | --- | --- | --- |
| CCCCC(=O)c1c(C#N)cccc1Oc1ncc(Cl)cn1 [Compound 68] | 10 | 30 | 10 | 30 | 0 | 10 | 20 | 0 | 20 | 60 | 0 | 20 | 30 | 20 | 20 | 0 | 0 | 0 | 0 | 10 | Ryegrass, Italian plant response rating (0 to 100 scale) ([3]; 125 g ai/ha): 0; Ragweed plant response rating (0 to 100 scale) ([5]; 125 g ai/ha): 20; Wheat plant response rating (0 to 100 scale) ([7]; 125 g ai/ha): 0; Pigweed plant response rating (0 to 100 scale) ([9]; 125 g ai/ha): 90; Kochia plant response rating (0 to 100 scale) ([10]; 125 g ai/ha): 40; Barnyardgrass plant response rating [15]: 70; Plant response rating, Ryegrass, Italian [16]: 0; Ryegrass, Italian plant response rating [16]: 0; Plant response rating, Ragweed [17]: 0; Ragweed plant response rating [17]: 0; Plant response rating, Foxtail, Giant [18]: 10; Foxtail, Giant plant response rating [18]: 80; Plant response rating, Pigweed [19]: 20; Pigweed plant response rating [19]: 80; Plant response rating, Kochia [20]: 0; Kochia plant response rating [20]: 30 |
| CC(=NOC(C)C)c1c(C#N)cccc1Oc1ncc(Cl)cn1 [Compound 69] | 10 | 70 | 10 | 30 | 0 | 0 | 20 | 0 | 40 | 60 | 0 | 20 | 30 | 40 | 20 | 0 | 80 | 75 | 20 | 70 | Ryegrass, Italian plant response rating ([3]; 125 g ai/ha): 0; Ragweed plant response rating ([5]; 125 g ai/ha): 0; Wheat plant response rating ([7]; 125 g ai/ha): 0; Pigweed plant response rating ([9]; 125 g ai/ha): 80; Kochia plant response rating ([10]; 125 g ai/ha): 40; Barnyardgrass plant response rating [15]: 90; Plant response rating, Ryegrass, Italian [16]: 0; Ryegrass, Italian plant response rating [16]: 0; Plant response rating, Ragweed [17]: 0; Ragweed plant response rating [17]: 0; Plant response rating, Foxtail, Giant [18]: 40; Foxtail, Giant plant response rating [18]: 70; Plant response rating, Pigweed [19]: 40; Pigweed plant response rating [19]: 100; Plant response rating, Kochia [20]: 0; Kochia plant response rating [20]: 30 |
| CCCSC(=O)c1c(Br)cccc1Oc1ncc(Cl)cn1 [Compound 70] | 0 | 30 | 0 | 20 | 0 | 10 | 10 | 0 | 30 | 70 | 0 | 0 | 30 | 10 | 20 | 0 | 80 | 70 | 0 | 0 | Ryegrass, Italian plant response rating ([3]; 125 g ai/ha): 20; Ragweed plant response rating ([5]; 125 g ai/ha): 20; Wheat plant response rating ([7]; 125 g ai/ha): 0; Pigweed plant response rating ([9]; 125 g ai/ha): 20; Kochia plant response rating ([10]; 125 g ai/ha): 70; Barnyardgrass plant response rating [15]: 20; Plant response rating, Ryegrass, Italian [16]: 0; Ryegrass, Italian plant response rating [16]: 0; Plant response rating, Ragweed [17]: 0; Ragweed plant response rating [17]: 0; Plant response rating, Foxtail, Giant [18]: 0; Foxtail, Giant plant response rating [18]: 60; Plant response rating, Pigweed [19]: 0; Pigweed plant response rating [19]: 0; Plant response rating, Kochia [20]: 0; Kochia plant response rating [20]: 0 |
